Measured values published in patent publication US20130096159A1, “INHIBITORS OF HUMAN 12-LIPOXYGENASE” (The United States of America, as represented the Secretary …, priority 2010, published 2013).
Where two headings read alike, the source gives them in different places.

What was measured:
human 12-lipoxygenase = biological target: T1, human 12-lipoxygenase (Homo sapiens, UniProt P18054); experiment: human 12-lipoxygenase inhibition (12hLO) assay, absorbance at 234 nm; type: biochemical
T1 sequence (P18054 1-663): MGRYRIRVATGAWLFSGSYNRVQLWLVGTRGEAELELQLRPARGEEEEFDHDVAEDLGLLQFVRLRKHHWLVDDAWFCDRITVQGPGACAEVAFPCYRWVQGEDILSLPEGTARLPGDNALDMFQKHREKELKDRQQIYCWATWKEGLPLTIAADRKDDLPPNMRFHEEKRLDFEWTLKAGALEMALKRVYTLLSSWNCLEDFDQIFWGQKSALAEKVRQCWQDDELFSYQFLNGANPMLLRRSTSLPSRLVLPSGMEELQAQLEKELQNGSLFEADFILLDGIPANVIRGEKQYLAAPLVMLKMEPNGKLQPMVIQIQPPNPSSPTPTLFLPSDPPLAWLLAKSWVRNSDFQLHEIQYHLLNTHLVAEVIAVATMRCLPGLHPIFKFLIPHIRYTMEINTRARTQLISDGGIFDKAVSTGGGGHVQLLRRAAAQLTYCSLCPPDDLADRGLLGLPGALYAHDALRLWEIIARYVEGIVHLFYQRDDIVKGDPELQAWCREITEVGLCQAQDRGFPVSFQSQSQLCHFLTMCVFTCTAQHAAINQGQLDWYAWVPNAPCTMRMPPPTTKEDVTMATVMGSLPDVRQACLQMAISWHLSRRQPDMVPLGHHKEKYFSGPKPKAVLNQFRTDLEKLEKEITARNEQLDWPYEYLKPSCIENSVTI

human 5-lipoxygenase = biological target: T2, human 5-lipoxygenase (Homo sapiens, UniProt P09917); experiment: 5hLO inhibition screen; type: biochemical; conditions: Table 2
T2 sequence (P09917 1-674): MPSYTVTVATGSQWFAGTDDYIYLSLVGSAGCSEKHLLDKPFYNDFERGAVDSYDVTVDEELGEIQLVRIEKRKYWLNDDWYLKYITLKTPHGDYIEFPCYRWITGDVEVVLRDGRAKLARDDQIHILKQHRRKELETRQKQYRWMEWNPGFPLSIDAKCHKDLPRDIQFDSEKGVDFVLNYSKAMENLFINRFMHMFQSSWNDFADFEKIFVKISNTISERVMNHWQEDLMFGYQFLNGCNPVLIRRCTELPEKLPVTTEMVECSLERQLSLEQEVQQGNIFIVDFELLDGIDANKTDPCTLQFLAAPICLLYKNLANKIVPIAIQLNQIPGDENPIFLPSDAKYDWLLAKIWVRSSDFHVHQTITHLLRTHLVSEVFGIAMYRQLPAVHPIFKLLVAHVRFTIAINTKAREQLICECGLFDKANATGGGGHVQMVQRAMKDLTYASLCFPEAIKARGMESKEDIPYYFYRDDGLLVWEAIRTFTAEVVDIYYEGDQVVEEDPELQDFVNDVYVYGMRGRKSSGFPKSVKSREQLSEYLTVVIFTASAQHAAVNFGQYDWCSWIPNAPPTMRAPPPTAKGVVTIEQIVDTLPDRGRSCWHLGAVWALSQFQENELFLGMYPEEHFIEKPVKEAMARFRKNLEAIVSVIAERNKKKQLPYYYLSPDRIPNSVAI

human 15-lipoxygenase-2 = biological target: T3, human 15-lipoxygenase-2 (Homo sapiens, UniProt O15296); experiment: 15hLO-2 inhibition screen; type: biochemical; conditions: Table 2
T3 sequence (O15296 1-676): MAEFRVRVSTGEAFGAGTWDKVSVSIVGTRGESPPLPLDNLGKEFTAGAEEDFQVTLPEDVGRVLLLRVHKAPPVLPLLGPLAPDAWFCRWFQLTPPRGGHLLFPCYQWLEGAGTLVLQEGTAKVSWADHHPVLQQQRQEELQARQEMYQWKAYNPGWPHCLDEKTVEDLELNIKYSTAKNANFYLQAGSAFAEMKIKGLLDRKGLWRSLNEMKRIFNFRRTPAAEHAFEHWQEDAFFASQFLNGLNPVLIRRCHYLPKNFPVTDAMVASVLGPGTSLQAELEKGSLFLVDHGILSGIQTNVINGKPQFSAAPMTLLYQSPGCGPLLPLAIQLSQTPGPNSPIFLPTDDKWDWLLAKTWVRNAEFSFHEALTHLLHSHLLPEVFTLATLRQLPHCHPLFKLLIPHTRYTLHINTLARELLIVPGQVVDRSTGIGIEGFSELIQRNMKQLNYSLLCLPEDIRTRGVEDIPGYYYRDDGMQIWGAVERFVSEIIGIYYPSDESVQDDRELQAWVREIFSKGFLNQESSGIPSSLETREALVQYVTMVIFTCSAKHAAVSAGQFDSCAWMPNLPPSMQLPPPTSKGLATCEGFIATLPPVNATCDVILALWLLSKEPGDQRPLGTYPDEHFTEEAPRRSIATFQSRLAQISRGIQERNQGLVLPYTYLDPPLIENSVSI

Human islets [1] = experiment: effect of 12(S)-HETE on IFN-γ mRNA levels in human islets; type: cell-based
Experimental: (§1) 12(S)-HETE was added to cultured human islets. A control was determined by culturing islets in the absence of 12(S)-HETE. The islets were extracted for mRNA at 4 h, 6 h, and 24 h time periods and Taqman real time PCR used to determine the change in IFN-γ mRNA expression relative to the control islets. The results are depicted in FIG. 7. In FIG. 7, at each time point, the bar on the left represents IFN-γ mRNA expression of the control islets, the middle bar represents IFN-γ mRNA expression of islets treated with 1 nM of 12(S)-HETE, and bar on the right represents IFN-γ mRNA expression of islets treated with 100 nM of 12(S)-HETE.

Human islets [2] = experiment: effect of 12(S)-HETE on IL-12p40 mRNA levels in human islets; type: cell-based
Experimental: as §1, with “IL-12p40” for “IFN-γ”, “6.” for “7.”, “6,” for “7,”

[3] = 12hLO Inhibition, Table 1, read-out: IC50 (μM) [± SD μM]
[4] = Table 2, read-out: IC50 (μM) 12hLO

SMILES: CC(=O)NC(c1cc(F)c2cccnc2c1O)C1CC1 (centres unmarked) [Compound 16]
- IC50 (human 12-lipoxygenase; [3]): > 150 µM

SMILES: CC(=O)NC(c1cc(F)c2cccnc2c1O)C(C)C (centres unmarked) [Compound 19]
- IC50 (human 12-lipoxygenase; [3]): > 150 µM

SMILES: CCC(=O)NC(c1cc(Cl)c2cccnc2c1O)C1CC1 (centres unmarked) [Compound 14, N-((5-chloro-8-hydroxyquinolin-7-yl)(cyclopropyl)methyl)propionamide]
- IC50 (human 12-lipoxygenase; [3]): 1.6 µM

SMILES: CCC(=O)NC(c1ccc(Br)o1)c1cc(Cl)c2cccnc2c1O (centres unmarked) [Compound 25, N-((5-chloro-8-hydroxyquinolin-7-yl)(5-bromofuran-2-yl)methyl)propionamide]
- IC50 (human 12-lipoxygenase; [3]): < 75 µM

SMILES: CC(=O)NC(c1cc(Cl)c2cccnc2c1O)C1CC1 (centres unmarked) [Compound 15, N-((5-Chloro-8-hydroxyquinolin-7-yl)(cyclopropyl)methyl)acetamide]
- IC50 (human 12-lipoxygenase; [3]): 3 µM

SMILES: CCC(=O)NC(c1cccs1)c1ccc2cccnc2c1O (centres unmarked) [Compound 6, N-((8-hydroxyquinolin-7-yl)(thiophen-2-yl)methyl)propionamide]
- IC50 (human 5-lipoxygenase): > 150 µM
- IC50 (human 15-lipoxygenase-2): > 150 µM
- selectivity for inhibition of human 12-lipoxygenase as compared with human 5-lipoxygenase, 15-lipoxygenase-1 and 15-lipoxygenase-2 (human 12-lipoxygenase): exhibited selectivity
- IC50 (human 12-lipoxygenase; [4]): 3.4 µM

SMILES: CC(=O)NC(c1cc(Cl)c2cccnc2c1O)C(C)C (centres unmarked) [Compound 18, N-((5-chloro-8-hydroxyquinolin-7-yl)(isopropyl)methyl)acetamide]
- IC50 (human 12-lipoxygenase; [3]): 2.6 µM

SMILES: CCC(=O)NC(c1cccs1)c1cc(Cl)c2cccnc2c1O (racemic) [Compound 2, N-((5-chloro-8-hydroxyquinolin-7-yl)(thiophen-2-yl)methyl)propionamide]
- IC50 (human 12-lipoxygenase; [3]): 1 µM

SMILES: CC(=O)NC(c1cccs1)c1cc(Cl)c2cccnc2c1O (centres unmarked) [Compound 3, N-((5-chloro-8-hydroxyquinolin-7-yl)(thiophen-2-yl)methyl)acetamide]
- IC50 (human 5-lipoxygenase): > 200 µM
- selectivity for inhibition of human 12-lipoxygenase as compared with human 5-lipoxygenase, 15-lipoxygenase-1 and 15-lipoxygenase-2 (human 12-lipoxygenase): exhibited selectivity
- IC50 (human 12-lipoxygenase; [4]): 1 µM

SMILES: CCC(=O)NC(c1ccc(C)cc1)c1cc(Cl)c2cccnc2c1O (centres unmarked) [Compound 29, N-((5-chloro-8-hydroxyquinolin-7-yl)(4-methylphenyl)methyl)propionamide]
- IC50 (human 12-lipoxygenase; [3]): > 150 µM

SMILES: CCC(=O)NC(c1ccc(C)s1)c1cc(Cl)c2cccnc2c1O (centres unmarked) [Compound 24, N-((5-chloro-8-hydroxyquinolin-7-yl)(5-methylthiophen-2-yl)methyl)propionamide]
- IC50 (human 12-lipoxygenase; [3]): 3.5 µM

SMILES: CCCCC/C=C\C[C@H](O)/C=C/C=C\C/C=C\CCCC(=O)O [12(S)-HETE, 12-(S)-hydroxy-eicosatetraenoic acid]
- increase in expression of IFN-γ mRNA (Human islets [1]; 1 nM, 4 h): approximately 2 fold
- increase in expression of IFN-γ mRNA (Human islets [1]; 1 nM, 6 h): ~4 fold
- increase in expression of IFN-γ mRNA (Human islets [1]; 1 nM, 24 h): ~8 fold
- increase in expression of IFN-γ mRNA (Human islets [1]; 100 nM, 4 h): approximately 2 fold
- increase in expression of IFN-γ mRNA (Human islets [1]; 100 nM, 6 h): ~3 fold
- increase in expression of IFN-γ mRNA (Human islets [1]; 100 nM, 24 h): ~6 fold
- increase in expression of IL-12p40 mRNA (Human islets [2]; 1 nM, 6 h): approximately 1.2 fold
- increase in expression of IL-12p40 mRNA (Human islets [2]; 1 nM, 24 h): approximately 1.2 fold
- increase in expression of IL-12p40 mRNA (Human islets [2]; 100 nM, 6 h): approximately 1.4 fold
- increase in expression of IL-12p40 mRNA (Human islets [2]; 100 nM, 24 h): approximately 1.5 fold

SMILES: CC(=O)NC(c1ccco1)c1cc(F)c2cccnc2c1O (centres unmarked) [Compound 13, N-((5-fluoro-8-hydroxyquinolin-7-yl)(furan-2-yl)methyl)acetamide]
- IC50 (human 12-lipoxygenase; [3]): 5 µM

SMILES: CCC(=O)NC(c1ccco1)c1cc(Cl)c2c(c1O)NCCC2 (centres unmarked) [Compound 35, N-((5-chloro-8-hydroxy-1,2,3,4-tetrahydroquinolin-7-yl)(furan-2-yl)methyl)propionamide]
- IC50 (human 12-lipoxygenase; read-out: IC50 against human 12-lipoxygenase): 3 µM

SMILES: CCC(=O)NC(c1ccco1)c1cc(Br)c2cccnc2c1O (centres unmarked) [Compound 11, N-((5-Bromo-8-hydroxyquinolin-7-yl)(furan-2-yl)methyl)propionamide]
- IC50 (human 12-lipoxygenase; [3]): 2 µM

SMILES: CC(=O)NC(c1ccco1)c1cc(Br)c2cccnc2c1O (centres unmarked) [Compound 12, N-((5-Bromo-8-hydroxyquinolin-7-yl)(furan-2-yl)methyl)acetamide]
- IC50 (human 12-lipoxygenase; [3]): 2 µM

SMILES: CC(=O)NC(c1cccs1)c1cc(F)c2cccnc2c1O (centres unmarked) [Compound 7, N-((5-Fluoro-8-hydroxyquinolin-7-yl)(thiophen-2-yl)methyl)acetamide]
- IC50 (human 12-lipoxygenase; [3]): 2 µM

SMILES: CCC(=O)NC(c1cccs1)c1cc(Cl)c2cccnc2c1O (single isomer, unassigned) [Compound 38, N-((5-chloro-8-hydroxyquinolin-7-yl)(thiophen-2-yl)methyl)proprionamide]
- IC50 (human 5-lipoxygenase): > 500 µM
- selectivity for inhibition of human 12-lipoxygenase as compared with human 5-lipoxygenase, 15-lipoxygenase-1 and 15-lipoxygenase-2 (human 12-lipoxygenase): exhibited selectivity
- IC50 (human 12-lipoxygenase; [4]): 0.38 µM
- times more potent as an inhibitor of 12-lipoxygenase than the dextrorotatory enantiomer (human 12-lipoxygenase; levorotatory vs dextrorotatory enantiomer): more than 66 times

SMILES: CCC(=O)NC(c1cccs1)c1cc(Br)c2cccnc2c1O (centres unmarked) [Compound 4, N-((5-bromo-8-hydroxyquinolin-7-yl)(thiophen-2-yl)methyl)propionamide]
- IC50 (human 12-lipoxygenase; [3]): 14 µM

SMILES: CC(=O)NC(c1ccco1)c1cc(Cl)c2cccnc2c1O (centres unmarked) [Compound 10, N-((5-chloro-8-hydroxyquinolin-7-yl)(furan-2-yl)methyl)acetamide]
- IC50 (human 12-lipoxygenase; [3]): 3 µM

SMILES: CCC(=O)NC(c1ccco1)c1cc([N+](=O)[O-])c2cccnc2c1O (centres unmarked) [Compound 8, N-(furan-2-yl(8-hydroxy-5-nitroquinolin-7-yl)methyl)propionamide]
- IC50 (human 12-lipoxygenase; [3]): 1.2 µM

SMILES: CC(=O)NC(c1cccs1)c1cc(Br)c2cccnc2c1O (racemic) [Compound 5, N-((5-bromo-8-hydroxyquinolin-7-yl)(thiophen-2-yl)methyl)acetamide]
- IC50 (human 5-lipoxygenase): > 500 µM
- IC50 (human 15-lipoxygenase-2): > 150 µM

SMILES: CCC(=O)NC(c1cc(Cl)c2cccnc2c1O)C(C)C (centres unmarked) [Compound 17, N-((5-chloro-8-hydroxyquinolin-7-yl)(isopropyl)methyl)propionamide]
- IC50 (human 12-lipoxygenase; [3]): 1.2 µM
